Laboratory results as given in ChEMBL document CHEMBL1133898 (Bioorg Med Chem Lett, 2001).

Legend:
[1] = biological target: T1, Sodium-dependent dopamine transporter (Rattus norvegicus, UniProt P23977); assay: Inhibition of high affinity uptake of [3H]DA using rat nerve endings obtained from brain regions enriched in DAT.
[2] = biological target: T2, Norepinephrine transporter (Rattus norvegicus, UniProt Q9WTR4); assay: Evaluated for ability to inhibit high affinity uptake of [3H]-NE using rat nerve endings obtained from brain regions enriched in Norepinephrine transporter; type: functional
T2 sequence (Q9WTR4 whole entry): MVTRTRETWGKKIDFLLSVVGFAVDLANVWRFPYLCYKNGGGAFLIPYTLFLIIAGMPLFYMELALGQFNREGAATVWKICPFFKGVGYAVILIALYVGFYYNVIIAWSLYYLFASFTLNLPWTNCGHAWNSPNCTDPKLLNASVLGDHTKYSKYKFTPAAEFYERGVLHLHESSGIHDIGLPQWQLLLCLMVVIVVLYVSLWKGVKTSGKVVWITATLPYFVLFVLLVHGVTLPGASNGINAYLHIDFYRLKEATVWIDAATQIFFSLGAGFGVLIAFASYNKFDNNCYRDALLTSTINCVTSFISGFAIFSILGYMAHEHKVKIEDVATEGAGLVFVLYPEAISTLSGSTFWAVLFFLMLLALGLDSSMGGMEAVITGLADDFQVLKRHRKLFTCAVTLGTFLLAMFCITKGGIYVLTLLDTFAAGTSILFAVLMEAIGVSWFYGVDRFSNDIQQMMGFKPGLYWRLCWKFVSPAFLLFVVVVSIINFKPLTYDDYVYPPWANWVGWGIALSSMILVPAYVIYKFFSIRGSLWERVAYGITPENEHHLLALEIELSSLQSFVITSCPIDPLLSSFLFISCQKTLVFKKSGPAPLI

[3] = biological target: T3, Sodium-dependent serotonin transporter (Rattus norvegicus, UniProt P31652); assay: Evaluated for ability to inhibit high affinity uptake of [3H]5-HT using rat nerve endings obtained from brain regions enriched in serotonin transporter (5HTT); type: functional
T3 sequence (P31652 whole entry): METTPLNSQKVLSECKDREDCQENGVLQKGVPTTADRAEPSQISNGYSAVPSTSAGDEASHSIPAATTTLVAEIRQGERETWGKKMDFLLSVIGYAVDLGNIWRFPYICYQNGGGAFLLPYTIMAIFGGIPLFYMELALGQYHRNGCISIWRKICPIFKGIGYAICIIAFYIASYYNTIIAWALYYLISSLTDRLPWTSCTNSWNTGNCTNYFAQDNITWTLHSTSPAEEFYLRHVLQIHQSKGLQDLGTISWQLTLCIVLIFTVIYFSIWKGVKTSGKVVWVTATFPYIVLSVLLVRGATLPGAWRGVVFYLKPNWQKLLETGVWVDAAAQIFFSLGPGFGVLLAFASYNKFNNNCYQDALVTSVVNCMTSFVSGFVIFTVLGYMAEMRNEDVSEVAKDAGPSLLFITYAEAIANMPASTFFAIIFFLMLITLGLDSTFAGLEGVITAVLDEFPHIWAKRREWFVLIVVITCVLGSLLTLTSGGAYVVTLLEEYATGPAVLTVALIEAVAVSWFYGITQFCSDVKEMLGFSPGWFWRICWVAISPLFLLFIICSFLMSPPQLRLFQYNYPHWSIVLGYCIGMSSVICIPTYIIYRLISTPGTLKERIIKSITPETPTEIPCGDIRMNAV

[4] = biological target: T1, Sodium-dependent dopamine transporter; assay: Displacement of [3H][…] from dopamine transporter (DAT) of rat striatal membrane
[5] = biological target: T2, Norepinephrine transporter; assay: Displacement of [3H]NE from Norepinephrine transporter of rat brain
[6] = biological target: T3, Sodium-dependent serotonin transporter; assay: Displacement of [3H]5-HT from serotonin transporter of rat brain
[7] = biological target: T2, Norepinephrine transporter; assay: Evaluated for its ability to inhibit high affinity uptake of [3H]NE using rat nerve endings obtained from brain regions enriched in norepinephrine transporter (NET); type: functional
[8] = biological target: T3, Sodium-dependent serotonin transporter; assay: Evaluated for its ability to inhibit high affinity uptake of [3H]-5-HT using rat nerve endings obtained from brain regions enriched in serotonin transporter (5HTT); type: functional
[9] = biological target: T1, Sodium-dependent dopamine transporter; assay: Inhibitory concentration binding to Dopamine transporter using 0.5 nM [3H]WIN-35428
[10] = biological target: T2, Norepinephrine transporter; assay: (§1) Inhibitory concentration binding to Norepinephrine transporter using 0.2 nM […]
[11] = biological target: T3, Sodium-dependent serotonin transporter; assay: Inhibitory concentration binding to Serotonin transporter using 0.5 nM […]
[12] = biological target: T1, Sodium-dependent dopamine transporter; assay: Inhibitory concentration binding to dopamine transporter using 0.5 nM [3H]WIN-35428
[13] = biological target: T2, Norepinephrine transporter; assay: as §1; type: functional

T1 sequence (P23977 whole entry): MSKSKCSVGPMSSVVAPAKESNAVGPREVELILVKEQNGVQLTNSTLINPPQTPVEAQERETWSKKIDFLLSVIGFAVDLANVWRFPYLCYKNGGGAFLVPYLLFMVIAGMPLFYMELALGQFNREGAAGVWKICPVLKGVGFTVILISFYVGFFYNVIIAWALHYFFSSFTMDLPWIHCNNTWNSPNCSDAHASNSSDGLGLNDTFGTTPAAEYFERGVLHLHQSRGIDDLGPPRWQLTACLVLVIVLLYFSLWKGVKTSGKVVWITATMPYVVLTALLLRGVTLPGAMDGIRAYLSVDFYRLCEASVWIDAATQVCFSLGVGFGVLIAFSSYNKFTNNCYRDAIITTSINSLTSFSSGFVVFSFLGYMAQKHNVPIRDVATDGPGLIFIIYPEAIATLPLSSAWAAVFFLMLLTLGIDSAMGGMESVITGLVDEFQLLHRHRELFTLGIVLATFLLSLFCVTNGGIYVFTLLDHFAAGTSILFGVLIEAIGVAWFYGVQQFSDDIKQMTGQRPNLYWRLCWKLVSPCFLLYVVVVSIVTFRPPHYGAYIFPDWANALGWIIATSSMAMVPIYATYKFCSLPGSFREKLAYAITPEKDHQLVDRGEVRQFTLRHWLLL

Compound | Ki [1] [nM] | Ki [4] [nM] | Ki [5] [nM] | Ki [6] [nM] | also measured
CN1CC[C@H](c2ccc(Cl)cc2)[C@@H](c2nc(-c3ccccc3)no2)C1 | 497 |  |  |  | IC50 [2]: > 10000 nM; IC50 [3]: > 3000 nM
CN1CC[C@H](c2ccc(Cl)cc2)[C@@H](c2nc(-c3ccc4c(c3)OCO4)no2)C1 | > 3000 | > 3000 | > 3000 | > 3000 | 
CN1CC[C@@H](c2ccc(Cl)cc2)[C@H](c2nc(-c3ccc(Cl)cc3)no2)C1 | > 3000 | > 3000 | > 3000 | > 3000 | 
Cc1noc([C@@H]2CN(C)CC[C@H]2c2ccc(Cl)cc2)n1 | 955 |  |  |  | IC50 [7]: > 1000 nM; IC50 [8]: > 3000 nM
COc1ccc(-c2noc([C@@H]3CN(C)CC[C@H]3c3ccc(Cl)cc3)n2)cc1 | > 3000 | > 3000 | > 3000 | > 3000 | 
COC(=O)[C@H]1CN(C)CC[C@@H]1c1ccc(Cl)cc1 |  | 315 | 252 | 8490 | 
CC(C)c1noc([C@@H]2CN(C)CC[C@H]2c2ccc(Cl)cc2)n1 | 3590 | 2900 | 2680 | 1220 | 
Cc1noc([C@H]2CN(C)CC[C@@H]2c2ccc(Cl)cc2)n1 | 187 | 201 | 256 | 5960 | IC50 [9]: 4.05 nM; IC50 [10]: 363 nM; IC50 [11]: 2580 nM
CN1CC[C@H](c2ccc(Cl)cc2)[C@@H](c2nc(-c3ccc(Br)cc3)no2)C1 | > 3000 | > 3000 | > 3000 | > 3000 | 
CC(C)c1noc([C@H]2CN(C)CC[C@@H]2c2ccc(Cl)cc2)n1 | 391 | 494 | 778 | 2920 | 
CN1CC[C@@H](c2ccc(Cl)cc2)[C@H](c2nc(-c3ccc(Br)cc3)no2)C1 | > 3000 | > 3000 | > 3000 | > 3000 | 
COC(=O)[C@@H]1CN(C)CC[C@H]1c1ccc(Cl)cc1 | 2930 | 2000 | 396 | 930 | 
CN1CC[C@@H](c2ccc(Cl)cc2)[C@H](c2nc(-c3ccccc3)no2)C1 | 1710 |  |  |  | IC50 [2]: > 3000 nM; IC50 [3]: > 3000 nM
CN1CC[C@@H](c2ccc(Cl)cc2)[C@H](c2nc(-c3ccc4c(c3)OCO4)no2)C1 | > 3000 | > 3000 | > 3000 | > 3000 | 
COc1ccc(-c2noc([C@H]3CN(C)CC[C@@H]3c3ccc(Cl)cc3)n2)cc1 | > 3000 | > 3000 | > 3000 | > 3000 | 
CN1CC[C@H](c2ccc(Cl)cc2)[C@@H](c2nc(-c3ccc(Cl)cc3)no2)C1 | > 3000 | > 3000 | > 3000 | > 3000 | IC50 [12]: 4.06 nM; IC50 [13]: 4070 nM; IC50 [11]: 404 nM
